Data published in PubChem BioAssay AID2745 (NMMLSC, 2010).

These compounds were tested on S. cerevisiae LAP4-GFP reporter, flow cytometry fluorescence (assay: concentration series on yeast TOR reporter LAP4 – cell-based, MLPCN hits, flow cytometry, dose response (AID 2745);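 further: yeast exposed to compound for three hours at 30 degrees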).

| SMILES | EC50 |
| --- | --- |
| CN(Cc1cnc2nc(N)nc(N)c2n1)c1ccc(C(=O)N[C@@H](CCC(=O)O)C(=O)O)cc1 | 5.18 µM |
| O=[N+]([O-])c1cc(Cl)c2cccnc2c1O | 0.859 µM |
| COc1ccc(C(c2c(C)[nH]n(C(N)=S)c2=O)C(C#N)C#N)cc1 (centres undefined) | 2.08 µM |
| COc1cc(N2C(=O)C=CC2=O)c(OC)cc1Cl | 1.44 µM |
| Nc1ccc(Br)c2c1C(=O)c1ccccc1C2=O | 1.18 µM |
| O=C1C2C3C=CC(CO)(O3)C2C(=O)N1c1ccc(-c2ccccc2)cc1 (centres undefined) | 1.53 µM |
| Cc1ccc(/C=C2/C(=O)ON=C2c2ccccc2)o1 | 3.48 µM |
| CC(C)(C)c1ccc(NC(=O)COC(=O)c2ccc([N+](=O)[O-])s2)cc1 | 3.72 µM |
| CCSc1nnc(NC(=O)c2ccccn2)s1 | 30.3 µM |
| CC(C)(C)c1nnc(N/N=C/c2cc(Br)ccc2O)n(N)c1=O | 12.2 µM |
| Cc1ccc(O)c(N=Nc2nccs2)c1 | 4.52 µM |
| Clc1ccc(N=c2ssnc2Cl)cc1 | 19.3 µM |
| Cc1ccc(NC(=O)c2ccc(Cl)c(N3C(=O)C=CC3=O)c2)cc1 | 1.59 µM |
| C/C(=N\NC(=O)c1cc2ccccc2cc1O)c1ccccn1 | 3.98 µM |
| O=c1[nH]c(-c2ccccn2)nc(C(F)(F)F)c1Br | 2.55 µM |
| Oc1ccc2ccccc2c1N=Nc1nccs1 | 8.45 µM |
| Cc1cccc(Nc2nc(-c3ccccn3)cs2)n1 | 3.79 µM |
| O=C(OCn1ncc(Br)c(Br)c1=O)c1c(F)cccc1F | 16.9 µM |
| Oc1ccc(Br)cc1/C=N/Nc1ccccn1 | 22.7 µM |
| COc1cccc(/C=N/Nc2ncc(C(F)(F)F)cc2Cl)c1O | 6.3 µM |
| COc1cccc(C(=O)Nc2nnc(-c3ccc(Cl)cc3)o2)c1 | 3.84 µM |
| Cc1ccc(/C=C/C(=O)c2ccccc(=O)c2O)c(C)c1 | 4.15 µM |

| SMILES | EC50 |
| --- | --- |
| CC(C)Oc1ccc(C(=O)/C=C2/C(=O)Nc3ccccc32)cc1 | 9.41 µM |
| Cc1cccnc1Nc1nc(-c2ccccn2)cs1 | 3.7 µM |
| COc1ccc([N+](=O)[O-])c(S(=O)(=O)c2ccc(Cl)cc2)n1 | 1.99 µM |
| CCOC(=O)COc1ccc2ccccc2c1/C=C/[N+](=O)[O-] | 4.41 µM |
| O=C(c1ccccc1)c1ccccc1N1C(=O)C=CC1=O | 2 µM |
| CC(C)(C)n1nc(-c2ccc(Cl)cc2)c2c(N)ncnc21 | 4.82 µM |
| O=C(/C=C/c1ccc(Cl)c([N+](=O)[O-])c1)c1cccnc1 | 28.6 µM |
| O=C1ON=C(c2ccccc2)/C1=C\c1ccco1 | 3.67 µM |
| O=S(=O)(CCN(CCS(=O)(=O)C(F)(F)F)CC1CCCO1)C(F)(F)F (centres undefined) | 7.67 µM |
| Nc1ccccc1C#CC(=O)c1ccccc1 | 8.31 µM |
| O=[N+]([O-])c1cc(O)c2ncccc2c1 | 9.88 µM |
| c1ccc(-c2cccc(-c3ccccn3)n2)nc1 | 3.9 µM |
| COc1cccc(/C=N/Nc2ccc([N+](=O)[O-])cn2)c1O | 5.73 µM |
| O=C1C=C(c2ccccc2)C(=O)N1Nc1ccccc1 | 1.62 µM |
| CC(C)(C)C(=O)NC(=S)NNC(=O)c1ccc(-c2ccccc2)cc1 | 7.51 µM |
| O=C1NC(=S)NC(=O)C1=Cc1ccc2c(c1)CCN2CCCCl | 4.06 µM |
| O=C1ON=C(c2ccccc2)/C1=C/c1ccc(-c2ccccc2[N+](=O)[O-])o1 | 5 µM |
| O=C(c1ccc(C(=O)N2CCCc3ccccc32)s1)N1CCCc2ccccc21 | 7.77 µM |
| Cc1ccc(NN2C(=O)C=C(c3ccc(Cl)cc3)C2=O)cc1 | 0.691 µM |
| Cc1cccc(N=Nc2ccc(O)c3ncccc23)c1 | 14 µM |
| N/C(Cc1ccc(Cl)cc1Cl)=N\OC(=O)c1cccs1 | 4.48 µM |
| COc1ccccc1N=Nc1ccc(O)c2ncccc12 | 4.25 µM |
